Experimental data from PubChem BioAssay AID2060625 (Molecular Pharmacology Branch, DTP, NCI, 2025).

System: 186277-243-T-J2-PDC spheroids with HUVEC/MSC, viability
Assay: Anticancer human tumor 186277-243-T-J2-PDC patient-derived colon adenocarcinoma cell line growth inhibition [CLK]
Settings: for IC50: curve of first compound; for viability, T/C: stronger effect = lower value
Text: A high-throughput screen of multi-cell type tumor spheroids was designed to identify active combinations of […] and targeted small molecules. Complex spheroids include a stromal component modeled by human endothelial cells (HUVEC) and fibroblasts modeled by human mesenchymal stem cells (MSCs). The concentration ranges selected for each drug and investigational agent were based upon clinically achievable concentrations if the clinical Cmax of the agent was known.
Compounds. The drugs and investigational agents: cirtuvivint (SM08502; NSC835563), CC-671 (NSC850746), vemurafenib (NSC761431), tapotoclax (NSC804041), sotorasib (NSC818433), adagrasib (NSC831453), MRTX-1133 (NSC836407), BAY2416964 (NSC825713), copanlisib (NSC816437), inavolisib (NSC800729), abemaciclib (NSC768073), osimertinib (NSC779217), entinostat (NSC756642), eltanexor (KPT-8602, NSC794443), venetoclax (NSC766270), ceralasertib (NSC777638), bortezomib (NSC756655), olaparib (NSC753686), talazoparib (NSC767125), alisertib (NSC759677), peposertib (NSC802822), gemcitabine (NSC613327), 5-fluorouracil (NSC19893), SN-38 (NSC673596), oxaliplatin (NSC266046), paclitaxel (NSC125973), and doxorubicin (NSC123127), were obtained from the National Cancer Institute (NCI) Developmental Therapeutics Program Chemical Repository. The FDA-approved anticancer drug set is available from the Developmental Therapeutics Program at https://dtp.cancer.gov/organization/dscb/obtaining/available plates.htm. […] The stock solutions were prepared in dimethyl sulfoxide (DMSO, Sigma-Aldrich, St. Louis, MO, cat. D2650), except for the platinum complexes which were prepared in saline (Quality Biological, Gaithersburg, MD, cat. 114-055-101), at 800-fold the tested concentration and stored at -70 degrees C prior to their use. All drugs and investigational agents were tested over a range starting from a high concentration at or near the clinical Cmax and decreasing in half-log increments. If the clinical Cmax for an agent had not been determined, the highest concentration tested was 10 microM.
Cell Culture. All cells were maintained in an incubator at 37 degrees C and 5% CO2 with 95% humidity. The PDC lines were cultured according to standard operating procedures established by the NCI PDMR. Briefly, all PDCs were thawed and cultured in Matrigel-coated flasks prepared with a working solution of 1X Ham's F-12 nutrient mix, without supplementation (Invitrogen, Waltham, MA, cat. 11765054), 100 U/mL penicillin-streptomycin (Invitrogen, cat. 15140122), and 2.5% Matrigel (Corning Inc., Corning, NY, cat. 354248) for the first three passages. The 947758-054-R-J2-PDC line was cultured in 6B/Colon 1A media, which includes advanced DMEM/F-12 (Thermo Fisher Scientific, cat. 12634028), 10 mM HEPES (Thermo Fisher Scientific, cat. 15630080), 1X GlutaMAX supplement (Thermo Fisher Scientific, cat. 35050061), 0.1 mg/mL primocin (InvivoGen, cat. ant-pm-2), 10% defined fetal bovine serum, heat inactivated (HyClone Laboratories Inc., cat. SH30070.03HI), 1.25 mM N-Acetyl-L-cysteine (Sigma-Aldrich, cat. A9165), 10 mM nicotinamide (Sigma-Aldrich, cat. N0636), 1X B-27 supplement (Thermo Fisher Scientific, cat. 17504044), 1X N-2 supplement (Thermo Fisher Scientific, cat. 17502048), and 10 microM Y-27632 dihydrochloride (Tocris Bioscience, cat. 1254). The 876862-298-R-J1-PDC was cultured in 6E media, which includes all 6B/Colon 1A media components plus 50% L-WRN conditioned media (ATCC, cat. CRL-3276), 50 ng/mL recombinant human EGF recombinant protein (hEGF; Thermo Fisher Scientific, cat. PHG0311), 10 ng/mL recombinant human fibroblast growth factor 10 (hGFG-10; PeproTech, cat. 100-26), 1 ng/mL recombinant human fibroblast growth factor 2 (hFGF-2; PeproTech, cat. 100-18B), and 1 µM prostaglandin E2 (PGE2; Tocris, cat. 2296). The 227483-062-R1-J1-PDC line was cultured in Panc media, containing all 6E components except hFGF-2, with the addition of 500 nM SB-431542 (Selleckchem, cat. S1067) and 10 nM gastrin (Tocris, cat. 3006). […]

[1] = second compound 0.0316 µM, first compound 0.0316 µM
[2] = second compound 0.0316 µM, first compound 0.1 µM
[3] = second compound 0.0316 µM, first compound 0.316 µM
[4] = second compound 0.0316 µM, first compound 1 µM
[5] = second compound 0.0316 µM, first compound 3.16 µM
[6] = second compound 0.0316 µM, first compound 10 µM
[7] = second compound 0.1 µM, first compound 0.0316 µM
[8] = second compound 0.1 µM, first compound 0.1 µM
[9] = second compound 0.1 µM, first compound 0.316 µM
[10] = second compound 0.1 µM, first compound 1 µM
[11] = second compound 0.1 µM, first compound 3.16 µM
[12] = second compound 0.1 µM, first compound 10 µM
[13] = second compound 0.316 µM, first compound 0.0316 µM
[14] = second compound 0.316 µM, first compound 0.1 µM
[15] = second compound 0.316 µM, first compound 0.316 µM
[16] = second compound 0.316 µM, first compound 1 µM
[17] = second compound 0.316 µM, first compound 3.16 µM
[18] = second compound 0.316 µM, first compound 10 µM
[19] = second compound 1 µM, first compound 0.0316 µM
[20] = second compound 1 µM, first compound 0.1 µM
[21] = second compound 1 µM, first compound 0.316 µM
[22] = second compound 1 µM, first compound 1 µM
[23] = second compound 1 µM, first compound 3.16 µM
[24] = second compound 1 µM, first compound 10 µM
[25] = second compound 3.16 µM, first compound 0.0316 µM
[26] = second compound 3.16 µM, first compound 0.1 µM
[27] = second compound 3.16 µM, first compound 0.316 µM
[28] = second compound 3.16 µM, first compound 1 µM
[29] = second compound 3.16 µM, first compound 3.16 µM
[30] = second compound 3.16 µM, first compound 10 µM
[31] = second compound 10 µM, first compound 0.0316 µM
[32] = second compound 10 µM, first compound 0.1 µM
[33] = second compound 10 µM, first compound 0.316 µM
[34] = second compound 10 µM, first compound 1 µM
[35] = second compound 10 µM, first compound 3.16 µM
[36] = second compound 10 µM, first compound 10 µM
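Further: compound exposure lasted seven days before readout.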
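Wherever viability, T/C is given: 100% = DMSO vehicle control wells.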

C#Cc1c(F)ccc2cc(O)cc(-c3ncc4c(N5CC6CCC(C5)N6)nc(OCC56CCCN5CC(F)C6)nc4c3F)c12 (stereo unspecified) + CN1CCN(c2cc(C(=O)Nc3cc4cc(-c5cnn(C)c5)ccc4cn3)ccn2)CC1 was tested, and the IC50 (second compound 0.0316 µM) was 891 nM, the IC50 (second compound 0.1 µM) was 188 nM and the IC50 (second compound 0.316 µM) was less than 31.6 nM. It also gave an IC50 (second compound 1 µM) of less than 31.6 nM, an IC50 (second compound 3.16 µM) of less than 31.6 nM and an IC50 (second compound 10 µM) of less than 31.6 nM. It also gave a viability, T/C [1] of 110%, a viability, T/C [2] of 88.2% and a viability, T/C [3] of 76.2%. For the same compound, the viability, T/C [4] was 44%, the viability, T/C [5] was 29.4% and the viability, T/C [6] was 15.2%. It also gave a viability, T/C [7] of 73.7%, a viability, T/C [8] of 75.3% and a viability, T/C [9] of 29.7%. It also gave a viability, T/C [10] of 22.9%, a viability, T/C [11] of 16.3% and a viability, T/C [12] of 9.03%. The viability, T/C [13] was 16%, the viability, T/C [14] was 11.7% and the viability, T/C [15] was 6.4%. For the same compound, the viability, T/C [16] was 4.52%, the viability, T/C [17] was 4.02% and the viability, T/C [18] was 2.36%. For the same compound, the viability, T/C [19] was 0.29%, the viability, T/C [20] was 0.77% and the viability, T/C [21] was 0.35%. The viability, T/C [22] was 0.39%, the viability, T/C [23] was 0.43% and the viability, T/C [24] was 0.19%. For the same compound, the viability, T/C [25] was 1.1%, the viability, T/C [26] was 0.65% and the viability, T/C [27] was 0.64%. The viability, T/C [28] was 1.1%, the viability, T/C [29] was 1.04% and the viability, T/C [30] was 0.26%. It also gave a viability, T/C [31] of 0.72%, a viability, T/C [32] of 0.54% and a viability, T/C [33] of 0.53%. It also gave a viability, T/C [34] of 0.64%, a viability, T/C [35] of 1.33% and a viability, T/C [36] of 0.27%.

C=C(F)C(=O)N1CCN(c2nc(OCC3CCCN3C)nc3c2CCN(c2cccc4cccc(Cl)c24)C3)CC1CC#N (stereo unspecified) + CN1CCN(c2cc(C(=O)Nc3cc4cc(-c5cnn(C)c5)ccc4cn3)ccn2)CC1 gave an IC50 (second compound 0.0316 µM) of 6630 nM, an IC50 (second compound 0.1 µM) of 5050 nM and an IC50 (second compound 0.316 µM) of less than 31.6 nM. The IC50 (second compound 1 µM) was less than 31.6 nM, the IC50 (second compound 3.16 µM) was less than 31.6 nM and the IC50 (second compound 10 µM) was less than 31.6 nM. The viability, T/C [1] was 84.2%, the viability, T/C [2] was 78.5% and the viability, T/C [3] was 115%. The viability, T/C [4] was 90.6%, the viability, T/C [5] was 106% and the viability, T/C [6] was 24.9%. For the same compound, the viability, T/C [7] was 82.7%, the viability, T/C [8] was 76.7% and the viability, T/C [9] was 81.4%. For the same compound, the viability, T/C [10] was 95.8%, the viability, T/C [11] was 83.5% and the viability, T/C [12] was 1.11%. For the same compound, the viability, T/C [13] was 25.1%, the viability, T/C [14] was 27.1% and the viability, T/C [15] was 30%. It also gave a viability, T/C [16] of 35%, a viability, T/C [17] of 32% and a viability, T/C [18] of 1.64%. It also gave a viability, T/C [19] of 1.65%, a viability, T/C [20] of 0.34% and a viability, T/C [21] of 1.16%. It also gave a viability, T/C [22] of 0.32%, a viability, T/C [23] of 0.22% and a viability, T/C [24] of 2.22%. For the same compound, the viability, T/C [25] was 1.31%, the viability, T/C [26] was 1.53% and the viability, T/C [27] was 1.42%. The viability, T/C [28] was 1.35%, the viability, T/C [29] was 1.01% and the viability, T/C [30] was 1.05%. For the same compound, the viability, T/C [31] was 0.68%, the viability, T/C [32] was 1% and the viability, T/C [33] was 1.19%. For the same compound, the viability, T/C [34] was 0.79%, the viability, T/C [35] was 1.52% and the viability, T/C [36] was 0.2%.

CC(CO)NC(=O)c1cc(-c2ccc(Cl)cc2)nn(-c2cnn(C)c2)c1=O (stereo unspecified) + CN1CCN(c2cc(C(=O)Nc3cc4cc(-c5cnn(C)c5)ccc4cn3)ccn2)CC1 showed an IC50 (second compound 0.0316 µM) greater than 10000 nM, an IC50 (second compound 0.1 µM) greater than 10000 nM and an IC50 (second compound 0.316 µM) of less than 31.6 nM. It also gave an IC50 (second compound 1 µM) of less than 31.6 nM, an IC50 (second compound 3.16 µM) of less than 31.6 nM and an IC50 (second compound 10 µM) of less than 31.6 nM. For the same compound, the viability, T/C [1] was 118%, the viability, T/C [2] was 111% and the viability, T/C [3] was 96.7%. It also gave a viability, T/C [4] of 102%, a viability, T/C [5] of 106% and a viability, T/C [6] of 112%. The viability, T/C [7] was 106%, the viability, T/C [8] was 92.2% and the viability, T/C [9] was 106%. For the same compound, the viability, T/C [10] was 103%, the viability, T/C [11] was 107% and the viability, T/C [12] was 97.3%. For the same compound, the viability, T/C [13] was 25%, the viability, T/C [14] was 27.6% and the viability, T/C [15] was 29.6%. For the same compound, the viability, T/C [16] was 30.5%, the viability, T/C [17] was 25.2% and the viability, T/C [18] was 35.1%. It also gave a viability, T/C [19] of 0.55%, a viability, T/C [20] of 0.96% and a viability, T/C [21] of 0.66%. For the same compound, the viability, T/C [22] was 0.35%, the viability, T/C [23] was 0.36% and the viability, T/C [24] was 0.38%. It also gave a viability, T/C [25] of 0.96%, a viability, T/C [26] of 1.12% and a viability, T/C [27] of 0.88%. For the same compound, the viability, T/C [28] was 1.2%, the viability, T/C [29] was 1.15% and the viability, T/C [30] was 1.66%. It also gave a viability, T/C [31] of 0.72%, a viability, T/C [32] of 0.76% and a viability, T/C [33] of 0.63%. It also gave a viability, T/C [34] of 0.88%, a viability, T/C [35] of 0.8% and a viability, T/C [36] of 0.63%.
